The record followed here is patent US5637584A, “Solvate of olanzapine” (Eli Lilly and Company, priority 1995, dated 1997).

Data set [1] can be described thus: detection of radiolabelled compound in saliva. Type of data set: in vivo. On the procedure: The anhydrous Form I 2-methyl-4-(4-methyl-1-piperazinyl)-10H-thieno-[2,3-b][1,5]benzodiazepine compound is effective over a wide dosage range, the actual dose administered being dependent on the condition being treated. For example, in the treatment of adult humans, dosages of from 0.25 to 30 mg, preferably from 1 to 20 mg, per day may be used. A once a day dosage is normally sufficient, although divided doses may be administered. For treatment of central nervous system disorders, a dose range of from 1 to 30 mg, preferably 2.5 to 20 mg per day is suitable.

A further data set deals with 5-HT2B receptor. Put plainly: 5-HT2B receptor activity.
Data set [2] concerns conditioned avoidance response. In words: conditioned avoidance response in rats. Type of data set: in vivo.
For data set [3], the system named is apomorphine-induced hypothermia. Put plainly: apomorphine-induced hypothermia in mice. Type of data set: in vivo. An excerpt: (§1) The Form I olanzapine prepared by the process of this invention has useful central nervous system activity. […] For example, the anhydrous Form I compound has been assessed in a number of standard behavior tests predictive of antipsychotic activity. The claimed compound antagonised apomorphine-induced climbing behavior and hypothermia in mice. See Moore, N. A. et al Psychopharmacology 94 (2), 263-266 (1988).

Another data set has as its system catalepsy. In words: induction of catalepsy. Type of data set: in vivo. Particulars: compared with doses required to block conditioned avoidance response.
Data set [4] in a line: stability of the anhydrous polymorph. Type of data set: physicochemical. Particulars: suitability for pharmaceutical formulations.
Data set [5] relates to apomorphine-induced climbing behavior. Put plainly: apomorphine-induced climbing behavior in mice. Type of data set: in vivo.
Source text: as §1

For `Cc1cc2c(s1)Nc1ccccc1N=C2N1CCN(C)CC1` [2-methyl-4-(4-methyl-1-piperazinyl)-10H-thieno-[2,3b][1,5]benzodiazepine], in data set [1], the detection in saliva entry is given as “can be detected in the saliva”.
Consider `Cc1cc2c(s1)Nc1ccccc1N=C2N1CCN(C)CC1` [anhydrous Form I olanzapine, 2-methyl-4-(4-methyl-1-piperazinyl)-10H-thieno[2,3-b][1,5]benzodiazepine], for which, in the data set on 5-HT2B receptor, the 5-HT2B receptor activity is listed as 5-HT2B receptor activity. Besides, in data set [2], the “inhibition of conditioned avoidance response” value is “inhibits”. Further, in data set [3], the “antagonism of apomorphine-induced hypothermia” value was “antagonised”. In the data set with catalepsy, the induction of catalepsy result is given as “induces cataleptsy only at higher doses”. Also, the “stability of crystal form” value in data set [4] was “stable”. Moreover, the “antagonism of apomorphine-induced climbing behavior” value in data set [5] is recorded as “antagonised”.
Take `Cc1cc2c(s1)Nc1ccccc1N=C2N1CCN(C)CC1` [anhydrous Form II 2-methyl-4-(4-methyl-1-piperazinyl)-10H-th] [2-methyl-4-(4-methyl-1-piperazinyl)-10H-thieno[2,3-b][1,5]benzodiazepine]: the “stability of crystal form” value in data set [4] is on record as “metastable”.
